Where two headings read alike, the source gives them in different places. *1 amine or outer side, *2 acyl side, *3 side chain or, on linkers, in order; H or OH if unused. Where a SMILES comes first, the peptide text is derived from it. [ ]: non-standard residue; d: D form. The star is where a group is joined. Sta = CC(C)C[C@H](N)[C@@H](O)CC(=O)O; AMC = Cc1cc(=O)oc2cc(N*)ccc12; Suc = O=C(CCC(=O)[*:2])[*:1]; Isovaleryl = CC(C)CC(=O)*
Columns and labels:
[1] = system: Clostridium perfringens FERM BP-4584 (7544S) cell growth-stimulating protein having proteinase activity (MW about 420,000); assay type: biochemical
[2] = system: Clostridium perfringens FERM BP-4584 (7544S) cell growth-stimulating protein having proteinase activity (MW about 420,000); assay type: biochemical; remark: listed apart in the source
[3] = inhibitor conc. 0.01 mM, substrate Suc-Ala-Ala-Pro-Phe-MCA
[4] = inhibitor conc. 1.0 mM, substrate Suc-Ala-Ala-Pro-Phe-MCA

Q: `CC(C)C[C@H](NC(=O)N[C@H](C(=O)N[C@@H](CCC(N)=O)C(=O)N[C@@H](C)C=O)[C@@H]1CCNC(=N)N1)C(=O)O` [Elastatinal] was tested. Which Residual activity [1, 3] did it give?
A: The Residual activity was 98%.

Q: Which Residual activity [1, 4] does the source give for `O=C(O)CN(CCN(CC(=O)O)CC(=O)O)CC(=O)O` [Ethylenediamine tetraacetic acid] here?
A: Its Residual activity is 34%.

Q: How did the Residual activity ([1]; inhibitor conc. 0.1 mM, substrate Suc-Ala-Ala-Pro-Phe-MCA) turn out when `O=C(O)CI` [Iodoacetic acid] was run?
A: Its Residual activity is 100%.

Q: Which Residual activity [1, 3] does the source give for `CC(C)CC(=O)N[C@H](C(=O)N[C@H](C(=O)N[C@@H](CC(C)C)[C@@H](O)CC(=O)N[C@@H](C)C(=O)N[C@@H](CC(C)C)[C@@H](O)CC(=O)O)C(C)C)C(C)C` [Pepstatin A] (Isovaleryl-VV[Sta]A[Sta]-OH) here?
A: Its Residual activity is 103%.

Q: What does the source list for `Cc1cc(=O)oc2cc(NC(=O)[C@H](Cc3ccccc3)NC(=O)[C@@H]3CCCN3C(=O)[C@H](C)NC(=O)[C@H](C)NC(=O)CCC(=O)O)ccc12` [Suc--Ala--Ala--Pro--Phe--MCA, succinyl-alanyl-alanyl-prolyl-phenylalanine-4-methyl-coumaryl-7-amide] (Suc-AAPF-{AMC})?
A: Km [2]: 4.2 mM; Vmax ([2]; substrate Suc-Ala-Ala-Pro-Phe-MCA, optimum pH 6.2-7.0): 230 μ mol/min/mg

Q: For `c1cnc2c(c1)ccc1cccnc12` [o-Phenanthroline], which Residual activity [1, 4] is on record?
A: Its Residual activity is 85%.

Q: For Chymostatin, which Residual activity [1, 3] is on record?
A: The Residual activity was 62%.

Q: How did the Residual activity [1] turn out when Toluene sulfonylfluoride was run?
A: Its Residual activity is 1%.

From patent US5464818A (priority 1993, dated 1995)
